One data set relates to (S)-adenosyl-L-methionine: Δ^24-sterol methyl transferase (SMT). The data set is described as follows: Sterol specificity (substrate methylation) of SMT enzyme from 4-day corn seedlings. It is filed as biochemical, Zea mays (corn). The following applies: same for the first and second methylation reactions; read-out: Km for the coenzyme. As to the method: The sterol specificity of the microsome-bound and soluble SMT enzyme from 4-day corn seedlings was determined in order to elucidate the enzymatic basis for the plant sterols identified in Example 1.
The term Km denotes the substrate concentration at which the rate is half of its maximum. For (S)-adenosyl-L-methionine [coenzyme], the Km turned out to be 5 µM.

The same data set, now with this note: soluble SMT from corn seedlings; substrates marked (C1), first methyl transfer; BG = background.
As to `CC(C)=CCC[C@@H](C)[C@H]1CC[C@H]2C3=C(CC[C@]12C)[C@@]1(C)CC[C@H](O)[C@@H](C)[C@@H]1CC3` [4α-Methylzymosterol], the “Enzyme Activity” value was 10,504 dpm/min.
Regarding `CC(C)=CCC[C@@H](C)[C@H]1CC[C@@]2(C)[C@@H]3CC[C@H]4[C@H](C)[C@@H](O)CC[C@@]45C[C@@]35CC[C@]12C` [31-Norcycloartenol], the “Enzyme Activity” value is reported as 18,757 dpm/min.
`CC(C)=CCC[C@@H](C)[C@H]1CC[C@@]2(C)C3=C(CC[C@]12C)[C@@]1(C)CC[C@H](O)C(C)(C)[C@@H]1CC3` [Lanosterol]: the “Enzyme Activity” value is given as 24,384 dpm/min.
Take `CC(C)=CCCC(C)C1CC[C@@]2(C)C3=C(CCC12C)C1(C)CCC(O)CC1CC3` (stereo partly drawn) [14α-Methylzymosterol]: the “Enzyme Activity” value is 3,376 dpm/min.
For the molecule `CC(C)=CCC[C@@H](C)[C@H]1CC[C@@]2(C)[C@@H]3CC[C@H]4C[C@@H](O)CC[C@@]45C[C@@]35CC[C@]12C` [24-Dehydropollinstanol], the “Enzyme Activity” value was 8,253 dpm/min.
As for `CC(C)=CCC[C@@H](C)[C@H]1CC[C@@]2(C)[C@@H]3CC[C@H]4C(C)(C)[C@@H](O)CC[C@]4(C)C3=CC[C@]12C` [Parkeol], the “Enzyme Activity” value is recorded as 6,002 dpm/min.

The same data set, now with this note: soluble SMT from corn seedlings; substrates marked (C2), second methyl transfer; BG = background.
With `C=C(CC[C@@H](C)[C@H]1CC[C@H]2C3=C(CC[C@]12C)[C@@]1(C)CC[C@H](O)[C@@H](C)C1CC3)C(C)C` (stereo partly drawn) [4α-Methylergosta-8,24(28)-dienol], the “Enzyme Activity” value is listed as 1,500 dpm/min.

The same data set, now with this note: soluble SMT; (C1), first methyl transfer.
Regarding `CC(C)=CCC[C@@H](C)[C@H]1CC[C@H]2C3=C(CC[C@]12C)[C@@]1(C)CC[C@H](O)[C@@H](C)[C@@H]1CC3` [4α-Methylzymosterol], the “% Activity, relative to cycloartenol methylation” value is 28 (C1) %.
Still for that read-out and setting: to `CC(C)=CCC[C@@H](C)[C@H]1CC[C@@]2(C)[C@@H]3CC[C@H]4[C@H](C)[C@@H](O)CC[C@@]45C[C@@]35CC[C@]12C` [31-Norcycloartenol] belongs 50 (C1) %.
With `CC(C)=CCC[C@@H](C)[C@H]1CC[C@@]2(C)C3=C(CC[C@]12C)[C@@]1(C)CC[C@H](O)C(C)(C)[C@@H]1CC3` [Lanosterol], the “% Activity, relative to cycloartenol methylation” value is given as 65 (C1) %.
For the molecule `CC(C)CCC[C@@H](C)[C@H]1CC[C@H]2C3=C(CC[C@]12C)[C@@]1(C)CCC(O)CC1CC3` (some centres unmarked) [Cholest-8-enol], the “% Activity, relative to cycloartenol methylation” value is on record as 0 (C1) %.
Take `CC(C)=CCCC(C)C1CC[C@@]2(C)C3=C(CCC12C)C1(C)CCC(O)CC1CC3` (stereo partly drawn) [14α-Methylzymosterol]: the “% Activity, relative to cycloartenol methylation” value is given as 9 (C1) %.
For `CC(C)=CCC[C@@H](C)[C@H]1CC[C@@]2(C)[C@@H]3CC[C@H]4C[C@@H](O)CC[C@@]45C[C@@]35CC[C@]12C` [24-Dehydropollinstanol], the “% Activity, relative to cycloartenol methylation” value is listed as 22 (C1) %.
On the same count and under the same terms, under `CC(C)=CCC[C@@H](C)[C@H]1CC[C@H]2C3=C(CC[C@]12C)[C@@]1(C)CCCCC1CC3` (some centres unmarked) [3-Desoxyzymosterol] stands 0 (C1) %.
On the same count and under the same terms, to `CC(C)=CCC[C@@H](C)[C@H]1CC[C@@]2(C)[C@@H]3CC[C@H]4C(C)(C)[C@@H](O)CC[C@]4(C)C3=CC[C@]12C` [Parkeol] belongs 16 (C1) %.

Staying with this data set, now noted: soluble SMT; (C2), second methyl transfer.
Take `C=C(CC[C@@H](C)[C@H]1CC[C@H]2C3=C(CC[C@]12C)[C@@]1(C)CC[C@H](O)CC1CC3)C(C)C` (some centres unmarked) [Ergosta-8,24(28)-dienol]: the “% Activity, relative to cycloartenol methylation” value was 0 (C2) %.
As for `C=C(CC[C@@H](C)[C@H]1CC[C@H]2[C@@H]3CC=C4C[C@@H](O)CC[C@]4(C)[C@H]3CC[C@]12C)C(C)C` [Ergosta-5,24(28)-dienol], the “% Activity, relative to cycloartenol methylation” value is recorded as 0 (C2) %.
The same measure, in the same setting: under `C=C(CC[C@@H](C)[C@H]1CC[C@H]2C3=CCC4CC(O)CC[C@]4(C)[C@H]3CC[C@]12C)C(C)C` (some centres unmarked) [Ergosta-7,24(28)-dienol] stands 0 (C2) %; under `C=C(CC[C@@H](C)[C@H]1CC[C@H]2C3=C(CC[C@]12C)[C@@]1(C)CC[C@H](O)[C@@H](C)C1CC3)C(C)C` (stereo partly drawn) [4α-Methylergosta-8,24(28)-dienol], 4 (C2) %.
For `C=C(CC[C@@H](C)[C@H]1CC[C@@]2(C)[C@@H]3CC[C@H]4[C@H](C)[C@@H](O)CC[C@@]45C[C@@]35CC[C@]12C)C(C)C` [Cycloeucalenol], the “% Activity, relative to cycloartenol methylation” value is on record as 0 (C2) %.

The next data set concerns Heliothis zea. The data set is described as follows: Sterol utilization and metabolism by Heliothis zea reared on artificial diet with sterol supplement. The following applies: Table 11; sterol 200 ppm in diet. As to the method: Heliothis zea (corn earworm) was reared on an artificial diet treated with different sterol supplements to study the relation between sterol structure and utilization in insects. H. zea eggs were used to establish a disease-free stock colony.
The stock insects were reared using sterile procedures on a pinto bean-based diet. Moths were fed 10% sucrose. Cultures were maintained at 27±1° C., at 40±10% relative humidity on a 14:10 light-dark photoperiod and an artificial diet was used to rear the insects on different sterol supplements. The experimental diet contained agar, which is known to contain trace contamination of cholesterol, otherwise the experimental diet was sterol-free.
Sterols were solubilized in acetone. Aliquots of the solutions were added to the sterol-free diet in a mortar, the material mixed thoroughly with the diet, and the organic solvent allowed to evaporate. Sterols were supplied to the medium at 200 ppm (equivalent to 1 mg of sterol per experimental vessel containing one insect).
By day 20, H. zea larva are in the final stage of larval development (sixth instar), after which the insects may pupate. A single neonate larva was placed in an experimental culture vial and allowed to grow for 20 days. The fresh weight, length and instar stage of 20-day larva were recorded.
In some treatments, the larvae were allowed to grow for another 4 days to determine whether they could pupate properly and develop into moth forms.
These fatty alcohols may comigrate with sterols during some forms of chromatography and interfere with sterol quantitation, particularly of cholesterol. Therefore, in order to confirm the identity and amount of cholesterol in the insect an aliquot of the NSF was injected into a HPLC column and the fraction corresponding to cholesterol was examined by GC-MS.
With `CC(C)=CCC[C@@H](C)[C@H]1CC[C@@]2(C)C3=C(CC[C@]12C)[C@@]1(C)CC[C@H](O)C(C)(C)[C@@H]1CC3` [Lanosterol], the “Instar reached by day 20” value came to 3.
The same measure, in the same setting: under `CC(C)CCC[C@@H](C)[C@H]1CC[C@H]2C3=C(CC[C@]12C)[C@@]1(C)CCC(O)CC1CC3` (some centres unmarked) [Cholest-8-enol] stands 3; under `CC(C)=CCC[C@@H](C)[C@H]1CC[C@@]2(C)[C@@H]3CC[C@H]4C[C@@H](O)CC[C@@]45C[C@@]35CC[C@]12C` [24-Dehydropollinstanol], 3.

The data set is the same for the next values; noted with them: Table 11; sterol 200 ppm in diet; 20-day larvae; relative to growth on cholesterol normalized to 100%.
`CC(C)=CCC[C@@H](C)[C@H]1CC[C@@]2(C)C3=C(CC[C@]12C)[C@@]1(C)CC[C@H](O)C(C)(C)[C@@H]1CC3` [Lanosterol] displayed a Growth response of 5%.
Molecule `CC(C)CCC[C@@H](C)[C@H]1CC[C@H]2C3=C(CC[C@]12C)[C@@]1(C)CCC(O)CC1CC3` (some centres unmarked) [Cholest-8-enol] showed a Growth response of 5%.
`CC(C)=CCC[C@@H](C)[C@H]1CC[C@@]2(C)[C@@H]3CC[C@H]4C[C@@H](O)CC[C@@]45C[C@@]35CC[C@]12C` [24-Dehydropollinstanol] yielded a Growth response of 5%.

Still in this data set, the particulars now being: in vivo.
Regarding `CC(C)=CCC[C@@H](C)[C@H]1CC[C@@]2(C)[C@@H]3CC[C@H]4C[C@@H](O)CC[C@@]45C[C@@]35CC[C@]12C` [24-Dehydropollinstanol], the “Sterol composition (as % total sterol): cholesterol” value stood at 14%, the “Sterol composition (as % total sterol): ts” value is listed as 86% and the Total sterol µg/insect was found to be 0.6 µg/insect.

The same data set, now with this note: test sterol as sole added dietary sterol.
Regarding `CC(C)=CCC[C@@H](C)[C@H]1CC[C@@]2(C)C3=C(CC[C@]12C)[C@@]1(C)CC[C@H](O)C(C)(C)[C@@H]1CC3` [Lanosterol], the “Utilization by H. zea / support of larval growth and development (words)” value was “could not be met satisfactorily”.
Turning to `CC(C)CCC[C@@H](C)[C@H]1CC[C@H]2C3=C(CC[C@]12C)[C@@]1(C)CCC(O)CC1CC3` (some centres unmarked) [Cholest-8-enol], the “Utilization by H. zea / support of larval growth and development (words)” value is listed as “inability of cholest-8-enol to support growth”.

The values are drawn from patent US20020148006A1, “Transgenic plants with modified sterol compositions” (Asgrow Seed Company, L.L.C., priority 1996, published 2002).
